According to patent publication US8188097B2, “Pyrazolo[1,5-A]pyrimidine compounds” (Mitsubishi Tanabe Pharma Corporation, priority 2005, dated 2012):

Target: T1, Human CB1 receptor (Homo sapiens, UniProt P21554)
T1 construct: host or cells: CHO cells (hCB1/CHO#C3), membrane fraction prepared in house
Assay: Human CB1 receptor binding assay ([3H]-CP55940 displacement, hCB1/CHO membrane fraction)
Conditions: human CB1 receptor membrane preparation, 30° C. for 90 minutes
Protocol: Human Cb1 Receptor Binding Assay
(1) Preparation of Human Cb1 Receptor (Membrane Fraction):
Human CB1-expressing cell line: hCB1/CHO#C3 (Euroscreen)
Buffer A: 50 mM tris-HCl (pH 7.5) containing ethylenediaminetetraacetic acid (2.5 mM), MgCl2 (5 mM) and sucrose (200 mM)
The receptor-expressing cells cultivated in the above medium were washed with phosphate buffer (×2) and thereto was added Buffer A (2 mL) under ice-cooling or 4° C. (the following procedures were also carried out at the same temperature). The cells were collected by using a cell-scraper, treated by a microtip-type ultrasonicator for 20 seconds (pulse-on: 2 sec, pulse-off: 1 sec) and centrifuged (500×g, 15 min). The supernatant was separated and centrifuged (43000×g, 60 min). The resultant pellet was suspended in Buffer A and homogenized with a potter-type homogenizer. To the homogenate was added an equal volume of 80% glycerol and stored at −80° C.
(2) Procedure of Cb1 Receptor Binding Assay:
Buffer B: 50 mM tris-HCl (pH 7.5) containing ethylenediaminetetraacetic acid (2.5 mM), MgCl2 (5 mM) and bovine serum albumine (2 mg/mL, fatty acid-free, SIGMA-A7030)
Buffer C: 50 mM tris-HCl (pH 7.5) containing ethylenediaminetetraacetic acid (2.5 mM), MgCl2 (5 mM) and bovine serum albumine (2 mg/mL, SIGMA-A7906)
Coating solution: 0.3% ethyleneimine polymer
Radioligand: [^3H]-CP55940 (30 nM/7992 dpm/mL) prepared by diluting 8.3 μM solution of the radioligand with Buffer B
Each well of the assay plate (96-well, Costar Code#3371) was filled with Buffer B (140 μL), a solution of each test compound in dimethylsulfoxide (20 μL, final concentration: […]), radioligand (20 μL) and membrane preparation (20 μL, 0.5 μg/20 μL) and the mixture was incubated at 30° C. for 90 minutes to proceed the binding reaction. The reaction mixture was harvested to each well of a plate presoaked with the above coating solution (Packard Unifilter GF/B, #6005177). The plate was washed with Buffer C (200 μL×10) and dried at 50° C. for 1 hour and Microscinti 40 (40 μL) was added to each well. The bound radiolabel was quantitated by scintillation counting (Top Count NXT, Packard). IC50 value of each test compound against the radioligand-binding to CB1 receptors was calculated on the basis of the quantitated radiolabel activity by using Graphpad Prism 3.02.

T1 sequence (P21554 whole entry): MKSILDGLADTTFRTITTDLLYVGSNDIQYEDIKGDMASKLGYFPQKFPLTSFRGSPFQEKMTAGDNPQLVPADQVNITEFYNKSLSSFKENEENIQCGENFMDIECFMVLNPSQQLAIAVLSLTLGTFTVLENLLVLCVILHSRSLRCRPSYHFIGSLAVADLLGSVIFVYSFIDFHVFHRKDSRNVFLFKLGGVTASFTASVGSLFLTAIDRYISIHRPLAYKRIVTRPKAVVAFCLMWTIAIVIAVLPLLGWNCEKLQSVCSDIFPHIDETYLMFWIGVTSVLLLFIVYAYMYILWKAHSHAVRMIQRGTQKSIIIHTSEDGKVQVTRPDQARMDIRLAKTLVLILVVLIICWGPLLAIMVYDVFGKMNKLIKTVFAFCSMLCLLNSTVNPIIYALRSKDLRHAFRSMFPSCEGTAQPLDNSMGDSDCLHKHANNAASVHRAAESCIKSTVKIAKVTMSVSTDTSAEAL

| SMILES | IC50 (nM) |
| --- | --- |
| O=C(NC1CCCCC1)c1cnn2c(-c3ccc(Cl)cc3)c(-c3ccccc3Cl)cnc12 [Example 10] | + + |
| Cc1nn2c(-c3ccc(C(F)(F)F)cc3)c(-c3ccccc3Cl)cnc2c1S(=O)(=O)N1CCCC1 [Example 238, 6-(2-chlorophenyl)-7-(4-trifluoromethylphenyl)-2-methyl-3-(1-pyrrolidinyl)sulfonylpyrazolo[1,5-a]pyrimidine] | + + |
| N#Cc1ccccc1-c1cnc2c(C(=O)NN3CCCCCC3)cnn2c1-c1ccc(Cl)cc1 [Example 252] | + + |
| O=C(NC1CSC1)c1cnn2c(-c3ccc(Cl)cc3)c(-c3ccccc3Cl)cnc12 [Example 324] | + + |
| Cc1nn2c(-c3ccc(Cl)cc3F)c(-c3ccccc3C#N)cnc2c1C(=O)NN1CCCC1 [Example 427] | + + |
| Cc1nn2c(-c3ccc(Cl)cc3)c(-c3ccccc3Cl)cnc2c1C(=O)CN1CCS(=O)(=O)CC1 [Example 462] | + + |

The next lines start with the values.

| IC50 (nM) | SMILES |
| --- | --- |
| + + | Cc1nn2c(-c3ccc(Cl)cc3)c(-c3ccccc3Cl)cnc2c1C(=O)N[C@H]1CCS(=O)(=O)C1 [Example 185] |
| + + | CC(=O)Nc1nn2c(-c3ccc(Cl)cc3)c(-c3ccccc3Cl)cnc2c1C(=O)NC1CCS(=O)(=O)C1 (stereo not shown) [Example 224] |
| + + + | CN(NC(=O)c1cnn2c(-c3ccc(Cl)cc3)c(-c3ccccc3C#N)cnc12)c1cccc(Cl)c1 [Example 253] |
| + + | CC(C)CNC(=O)c1cnn2c(-c3ccc(C(F)(F)F)cc3)c(-c3ccccc3Cl)cnc12 [Example 287] |
| + + + | CN(NC(=O)c1c(C(F)(F)F)nn2c(-c3ccc(Cl)cc3)c(-c3ccccc3Cl)cnc12)c1ccccn1 [Example 309] |
| + + | Cc1nn2c(-c3ccc(Cl)s3)c(-c3ccccc3Cl)cnc2c1C(=O)NN(C)c1ccccn1 [Example 410] |
| + + + | CN(NC(=O)c1c(N(C)S(C)(=O)=O)nn2c(-c3ccc(Cl)cc3)c(-c3ccccc3Cl)cnc12)c1ccccn1 [Example 452] |
